Assay results published in ChEMBL document CHEMBL6083253, “Chemical synthesis and enzymatic late-stage diversification of novel pantothenate analogues with antiplasmodial activity” (Eur J Med Chem, 2024).
Active and inactive are the calls of the source. No cut-off for these calls is given here.

Columns and labels:
Priestia megaterium [1] = test: Substrate activity at full length C-terminal his-tagged Bacillus megaterium […] BM3 A82F/F87V double mutant preincubated for 5 min in presence of NADP+ followed by compound addition by LC-MS analysis
Priestia megaterium [2] = test: Substrate activity at full length C-terminal his-tagged wild type Bacillus megaterium […] BM3 preincubated for 5 min in presence of NADP+ followed by compound addition by LC-MS analysis
Plasmodium falciparum [3] = test: Antiplasmodial activity against Plasmodium falciparum infected in human Erythrocyte measured after 96 hrs in presence of chloroquine and 1 uM of pantothenate by SYBR green fluorescence dye based microplate reader analysis; assay type: functional, organism-based
Plasmodium falciparum [4] = test: Antiplasmodial activity against intraerythrocytic stage of Plasmodium falciparum 3D7 assessed as inhibition of parasite proliferation in presence of pantetheinase; assay type: functional, organism-based
Priestia megaterium [5] = test: Substrate activity at full length C-terminal his-tagged Bacillus megaterium […] BM3 A82F/F87V double mutant assessed as conversion rate by UV-HPLC analysis
[6] = Cytotoxicity against HFF cells assessed as inhibition of cell proliferation at 200 uM incubated for 96 hrs in presence of 16.8 uM of pantothenate by IncuCyte live-cell analysis; assay type: toxicity, cell-based; details: human
[7] = Binding affinity to full length C-terminal his-tagged Bacillus megaterium […] BM3 A82F/F87V double mutant assessed as dissociation constant by Morrison equation based analysis; design: species or system Priestia megaterium
Plasmodium falciparum [8] = test: Antiplasmodial activity against Plasmodium falciparum infected in human Erythrocyte measured after 96 hrs in presence of chloroquine and 100 uM of pantothenate by SYBR green fluorescence dye based microplate reader analysis; assay type: functional, organism-based
Plasmodium falciparum [9] = test: Antiplasmodial activity against intraerythrocytic stage of Plasmodium falciparum 3D7 assessed as inhibition of parasite proliferation; assay type: functional, organism-based
[10] = Binding affinity to full length C-terminal his-tagged Bacillus megaterium […] BM3 A82F/F87V double mutant assessed as dissociation constant by Michaelis-Menten equation based analysis; design: species or system Priestia megaterium
[11] = Cytotoxicity against HFF cells assessed as inhibition of cell proliferation at 10 uM incubated for 96 hrs by IncuCyte live-cell analysis; assay type: toxicity, cell-based; details: human
Priestia megaterium [12] = test: Substrate activity at wild type full length C-terminal his-tagged Bacillus megaterium […] BM3 assessed as conversion rate by UV-HPLC analysis

Activity (Priestia megaterium [1]) | Activity (Priestia megaterium [2]) | IC50 (Plasmodium falciparum [3]) | Compound | other results
– | – | 7.3 µM | CC(C)C(O)Cc1cc(CNC(=O)[C@H](O)C(C)(C)CO)no1 (some centres undefined) | –
Active | Active | 0.13 µM | CCSCc1cc(CNC(=O)[C@H](O)C(C)(C)CO)no1 | inhibition at 96 h, 200 µM [6]: 100%; Kd [7]: 0.9 µM; IC50 (Plasmodium falciparum [8]): > 1.6 µM; Activity (Priestia megaterium [5]): Active
Active | Active | 0.35 µM | CC(C)CCCc1cc(CNC(=O)[C@H](O)C(C)(C)CO)no1 | inhibition at 96 h, 200 µM [6]: 102%; Kd [7]: 3.7 µM; IC50 (Plasmodium falciparum [8]): > 3.1 µM; Activity (Priestia megaterium [5]): Active
Active | Active | 0.47 µM | CC(C)Cc1cc(CNC(=O)[C@H](O)C(C)(C)CO)no1 | inhibition at 96 h, 200 µM [6]: 100%; Kd [7]: 3 µM; IC50 (Plasmodium falciparum [8]): > 6.3 µM; Activity (Priestia megaterium [5]): 37.5%
inactive | inactive | 10 µM | CCC(C)c1cc(CNC(=O)[C@H](O)C(C)(C)CO)no1 (some centres undefined) | –
– | – | 80 µM | CC(C)C(O)c1cc(CNC(=O)[C@H](O)C(C)(C)CO)no1 (some centres undefined) | –
Active | Active | 0.22 µM | CC(C)CCc1cc(CNC(=O)[C@H](O)C(C)(C)CO)no1 | inhibition at 96 h, 200 µM [6]: 100%; Activity (Priestia megaterium [12]): 85.6%; IC50 (Plasmodium falciparum [8]): > 3.1 µM

Second part, the compound before the results:

Compound | Activity (Priestia megaterium [1]) | Activity (Priestia megaterium [2]) | IC50 (Plasmodium falciparum [3]) | other results
CCCCCNC(=O)CCNC(=O)[C@H](O)C(C)(C)CO | inactive | inactive | – | –
CC(C)(CO)[C@@H](O)C(=O)NCc1cn(CC(O)Cc2ccccc2)nn1 (some centres undefined) | – | – | > 200 µM | –
CCCCCc1cc(CNC(=O)[C@H](O)C(C)(C)CO)no1 | – | – | – | IC50 (Plasmodium falciparum [4]): 0.16 µM
CCCCc1cc(CNC(=O)[C@H](O)C(C)(C)CO)no1 | – | – | – | IC50 (Plasmodium falciparum [4]): 0.072 µM
CCCCCc1nnc(CNC(=O)[C@H](O)C(C)(C)CO)o1 | inactive | inactive | – | –
CC(C)(O)CCCc1cc(CNC(=O)[C@H](O)C(C)(C)CO)no1 | – | – | 55 µM | –
CCCCCCn1cc(CNC(=O)[C@H](O)C(C)(C)CO)nn1 | – | – | – | IC50 (Plasmodium falciparum [4]): 0.055 µM
CC(C)(O)CCc1cc(CNC(=O)[C@H](O)C(C)(C)CO)no1 | – | – | 29 µM | –
CCCCCn1cc(CNC(=O)[C@H](O)C(C)(C)CO)nn1 | – | – | – | IC50 (Plasmodium falciparum [4]): 0.056 µM
CCCCCc1noc(CNC(=O)[C@H](O)C(C)(C)CO)n1 | Active | Active | – | Activity (Priestia megaterium [5]): 32.9%
CC(C)(CO)[C@@H](O)C(=O)NCc1cn(CCCc2ccccc2)nn1 | Active | Active | 16 µM | IC50 (Plasmodium falciparum [9]): 25 µM; Activity (Priestia megaterium [5]): 32.3%; Kd [10]: 10 µM
C[C@@H]1C[C@@H]([C@H](O)CC2CC(=O)NC(=O)C2)C(=O)[C@@H](C)C1 [CYCLOHEXIMIDE] | – | – | – | inhibition at 96 h, 10 µM [11]: 100%
CC(C)C(O)CCc1cc(CNC(=O)[C@H](O)C(C)(C)CO)no1 (some centres undefined) | – | – | 3.9 µM | inhibition at 96 h, 200 µM [6]: 101%; IC50 (Plasmodium falciparum [8]): > 50 µM
CC(C)(C)Cc1cc(CNC(=O)[C@H](O)C(C)(C)CO)no1 | inactive | Active | 4 µM | inhibition at 96 h, 200 µM [6]: 102%; IC50 (Plasmodium falciparum [8]): > 50 µM
CCCCCc1nnc(CNC(=O)[C@H](O)C(C)(C)CO)[nH]1 | inactive | inactive | – | –
CC[S+]([O-])Cc1cc(CNC(=O)[C@H](O)C(C)(C)CO)no1 (some centres undefined) | – | – | 153 µM | –
